Tests used:
[1] = SITA Foam Analyzer foam creation; type: physicochemical; settings: single surfactant, 1%, FIG. 1
From the text: The reagents used below include: • Alpha-Step® PC-48 is a C10-16 sodium methyl 2-sulfolaurate and disodium 2-sulfolaurate available from Stepan; • Stepan-Mild® L3 is a predominantly C12 reaction product of lauryl alcohol and lactic acid available from Stepan; • SLES is sodium laureth sulfate; • Cola® Teric is an amphoteric sultaine available from Colonial Chemical, Inc.; • Glucopon® […] is an alkyl polyglycoside available from BASF Corporation; • Suga® Nate is a sodium laurylglucosides hydrooxypropylsulfonate available from Colonial Chemicals, Inc; • Lathanol® LAL is a sodium lauryl sulfoacetate available from Stepan. All experiments ran through the SITA Foam Analyzer were as follows: Equipment: • 1) Foaming Apparatus • 2) SITA Software Reagents: • 1) 250 mL of each solution • 2) DI water Preparation: Equipment is prepared by turning the water bath on with ample time to warm up before running tests. Adjust water bath to desired temperature. Quality Assurance: Run a positive and negative control for every experiment. Ensure equipment is clean and free from any residual surfactant chemistry beforehand. In each experiment set, proper differentiation between chemistries can be seen if at least one of the tested chemistries has an “S” curve that depicts a change in the initial foam building and the lathering step. Experimental Procedure: • 1) Prepare water bath • 2) Open the “SITA-foam” software on the computer. […] Foam Generation • i. Series Count (cycles): number of measurement replicates (3-triplicate) • ii. Fill With: Volume of sample liquid (250 mL for each test) • iii. Stir Count: Number of stirrings for each test (70). This is also the number of measurements for each cycle. • iv. Stir Time: Stirring duration of sample (10 sec) • v. Revolution: RPM o the stirrer (900 RMP) • b. Cleansing • i. Click the shower icon to activate the automatic cleansing and rinsing function. The vessel will be cleaned automatically after each cycle of measurements. • ii. Normal cleansing will rinse out the vessel many times. Small cleansing indicates a faster cleansing process. All above parameters can be saved • 5) After setting the parameters, click on “Start Measurement” which is the green “Play” button to proceed with the experiment • 6) After each cycle of experiments automatic cleansing and rinsing is done in preparation for the next cycle of measurements as long as the instrument is connected to tap water or a cleansing liquid reservoir • 7) Each click on the green “Start Measurement” icon opens a new window. The current sample measurement results are all in the same project folder. To rename sample measurement files, right click on the open sample window, and click “save” to rename your sample file • 8) If an error occurs at any point with your sample, the measurement reading can be stopped by clicking the red square “Stop icon” or by pressing the large red button on the machine • 9) Organize the graph generated with the icons in the fourth section of the tool bar: create new plot, add/remove data from plot, change axis properties, and view properties. Click on the “Create new plot” icon to view the plot after the experiment is done or if it is still running. Right click to rename the plot, insert or remove the plot and display the foam buildup, foam decay, or both Establishing initial foaming of the single surfactants is important to establish baselines for comparison for the combinations of various surfactants. To establish the foaming properties of single surfactants, a high amount of each surfactant was analyzed in the SITA Foam Analyzer as described above. The final concentration of each surfactant in solution was 1%. The surfactants tested were sodium lauryl sulfate (SLES), a betaine, Cola® Teric CBS, Glucopon® […], Lathanol® LAL, and Suga® Nate 160NC. […] The compositions were tested for foaming using the SITA Foam Analyzer as described above. […]

[2] = tested on: Candida albicans (ATCC 10231), Saccharomyces cerevisiae (ATCC 834), Aspergillus niger (ATCC 16404); assay: Preservative test, yeast and mold inoculum; type: cell-based; settings: Lathanol LAL in preserved compositions
Description: (§1) The 7 different compositions in Table 4 were tested for their preservative ability, with composition 11 being a negative control as it lacks either phenoxyethanol or benzoic acid. To test the compositions, a bacterial inoculum and a yeast and mold inoculum were created. The bacterial inoculum comprised of equal parts of Staphylococcus aureus (ATCC 6538), Escherichia coli (ATCC 11229), Enterobacter aerogenes (ATCC 13048), Burkholderia cepacian (ATCC 25416), and Pseudomonas aeruginosa (ATCC 15442). The yeast and mold inoculum comprised of equal parts of Candida albicans (ATCC 10231), Saccharomyces cerevisiae (ATCC 834), and Aspergillus niger (ATCC 16404).
(§2) The inoculates were incubated for 3 days with the bacterial inoculum at 32° C. and the yeast and mold inoculum at 26° C. The preservative compositions were added, and samples measured at 7, 14, 21, and 28 days. A sample passed if no bacteria or yeast and mod survived after Day 7, conditionally passed if there was a greater than 2.0 log reduction on day 7 when compared to day 3, with no additional growth on days 14, 21, or 28 for the bacterial samples, and if there was not more than a 0.5 log increase from the initial inoculated count at days 14 and 28 for the yeast and mold samples. The results are summarized in Table 5 for bacterial samples and Table 6 for yeast and mold.

[3] = tested on: Staphylococcus aureus (ATCC 6538), Escherichia coli (ATCC 11229), Enterobacter aerogenes (ATCC 13048), Burkholderia cepacian (ATCC 25416), Pseudomonas …; assay: Preservative test, bacterial inoculum; type: cell-based; settings: Lathanol LAL in preserved compositions
Description: as §1, §2

sodium laurylglucosides hydrooxypropylsulfonate [Suga® Nate 160NC]
onset of foam saturation (in words) [1]: performing more slowly

CCCCCCCCCCCCOC(=O)CS(=O)(=O)O.[Na] [Lathanol® LAL, sodium lauryl sulfoacetate]
interference with antifungal or antimold capabilities (in words) [2]: does not interfere with the antifungal or antimold capabilities | onset of foam saturation (in words) [1]: performing more slowly | interference with preservatives, bacteria (in words) [3]: does not interfere with the addition of preservatives

C[N+](C)(C)CC(=O)O [betaine]
onset of foam saturation (in words) [1]: reached saturation at earlier cycles/readings
